Patent US11987588B2, “Modulators of the beta-3 adrenergic receptor useful for the treatment or prevention of heart failure and disorders related thereto” (Arena Pharmaceuticals, Inc., priority 2017, dated 2024)

Target: Beta-3 Adrenergic Receptor (Homo sapiens (Human), UniProt P13945)
Assay: Homogeneous Time-Resolved Fluorescence (HTRF) cAMP antagonist assay, IC50 determination
Type: cell-based
Settings: CHO-K1 cells stably expressing recombinant receptor, isoproterenol at EC90
Summary of the method: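 In this functional readout, recombinant CHO-K1 cells received compound, then isoproterenol at its EC90. After 1 h at room temperature, cAMP levels were determined by HTRF using an on-plate standard curve, and IC50 values were fitted.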

Chain of Beta-3 Adrenergic Receptor (P13945 whole entry, species assumed): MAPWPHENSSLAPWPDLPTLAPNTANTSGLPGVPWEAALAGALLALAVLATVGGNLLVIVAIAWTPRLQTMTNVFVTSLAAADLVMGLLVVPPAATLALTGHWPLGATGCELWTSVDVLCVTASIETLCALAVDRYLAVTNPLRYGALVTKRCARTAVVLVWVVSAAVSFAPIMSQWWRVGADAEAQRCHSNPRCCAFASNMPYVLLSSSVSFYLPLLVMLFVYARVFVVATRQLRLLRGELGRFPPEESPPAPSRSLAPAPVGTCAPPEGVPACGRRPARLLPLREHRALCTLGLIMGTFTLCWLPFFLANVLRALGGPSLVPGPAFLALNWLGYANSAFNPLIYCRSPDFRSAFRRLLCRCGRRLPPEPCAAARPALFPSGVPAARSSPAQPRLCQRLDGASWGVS

SMILES	IC50 [nM]
CNS(=O)(=O)c1cccc(OC[C@@H](O)CNC2COC3(CCN(S(=O)(=O)c4c(Cl)ccc5nsnc45)CC3)C2)c1 (stereo partly drawn) [Compound 197, 3-((2S)-3-(8-(5-chlorobenzo[c][1,2,5]thiadiazol-4-ylsulfonyl)-1-oxa-8-azaspiro[4.5]decan-3-ylamino)-2-hydroxypropoxy)-N-methylbenzenesulfonamide]	12.8
CNS(=O)(=O)c1cccc(OC[C@@H](O)CN[C@@H]2COC3(CCN(S(=O)(=O)c4cccc(-c5ccc(CC#N)cc5)c4)CC3)C2)c1 [Compound 293, 3-((S)-3-((S)-8-(4′-(cyanomethyl)biphenyl-3-ylsulfonyl)-1-oxa-8-azaspiro[4.5]decan-3-ylamino)-2-hydroxypropoxy)-N-methylbenzenesulfonamide]	16.2
CNS(=O)(=O)c1cccc(OC[C@@H](O)CN[C@H]2COC3(CCN(S(=O)(=O)c4ccc(-c5ccc(CN(C)C)cc5)cc4)CC3)C2)c1 [Compound 405, 3-((S)-3-((R)-8-(4′-((dimethylamino)methyl)biphenyl-4-ylsulfonyl)-1-oxa-8-azaspiro[4.5]decan-3-ylamino)-2-hydroxypropoxy)-N-methylbenzenesulfonamide]	51.8
CNS(=O)(=O)c1cccc(OC[C@@H](O)CNC2COC3(CCN(S(=O)(=O)c4ccccn4)CC3)C2)c1 (stereo partly drawn) [Compound 322, 3-((2S)-2-hydroxy-3-(8-(pyridin-2-ylsulfonyl)-1-oxa-8-azaspiro[4.5]decan-3-ylamino)propoxy)-N-methylbenzenesulfonamide]	73.5
CNS(=O)(=O)c1cccc(OC[C@@H](O)CN[C@H]2COC3(CCN(S(=O)(=O)c4cnc5c(c4)N(CCOC)CCO5)CC3)C2)c1 [Compound 471, 3-((S)-2-hydroxy-3-((R)-8-(1-(2-methoxyethyl)-2,3-dihydro-1H-pyrido[2,3-b][1,4]oxazin-7-ylsulfonyl)-1-oxa-8-azaspiro[4.5]decan-3-ylamino)propoxy)-N-methylbenzenesulfonamide]	69
O=S(=O)(NC1CC(F)(F)C1)c1cccc(OC[C@@H](O)CNC2COC3(CCN(S(=O)(=O)c4ccc5ccccc5c4)CC3)C2)c1 (stereo partly drawn) [Compound 89, N-(3,3-difluorocyclobutyl)-3-((2S)-2-hydroxy-3-(8-(naphthalen-2-ylsulfonyl)-1-oxa-8-azaspiro[4.5]decan-3-ylamino)propoxy)benzenesulfonamide]	429
CNS(=O)(=O)c1cccc(OC[C@@H](O)CN[C@H]2COC3(CCN(S(=O)(=O)c4ccc5nccn5c4)CC3)C2)c1 [Compound 537, 3-((S)-2-hydroxy-3-((R)-8-(imidazo[1,2-a]pyridin-6-ylsulfonyl)-1-oxa-8-azaspiro[4.5]decan-3-ylamino)propoxy)-N-methylbenzenesulfonamide]	101
CNS(=O)(=O)c1cccc(OC[C@@H](O)CNC2COC3(CCN(S(=O)(=O)c4cccc(C)c4F)CC3)C2)c1 (stereo partly drawn) [Compound 160, 3-((2S)-3-(8-(2-fluoro-3-methylphenylsulfonyl)-1-oxa-8-azaspiro[4.5]decan-3-ylamino)-2-hydroxypropoxy)-N-methylbenzenesulfonamide]	14.6
CNS(=O)(=O)c1cccc(OC[C@@H](O)CN[C@H]2COC3(CCN(c4nccc(C(=O)O)n4)CC3)C2)c1 [Compound 582, 2-((R)-3-((S)-2-hydroxy-3-(3-(N-methylsulfamoyl)phenoxy)propylamino)-1-oxa-8-azaspiro[4.5]decan-8-yl)pyrimidine-4-carboxylic acid]	100000
CNS(=O)(=O)c1cccc(OC[C@@H](O)CNC2COC3(CCN(S(=O)(=O)c4cccc(-c5cncc(C)c5)c4)CC3)C2)c1 (stereo partly drawn) [Compound 110, 3-((2S)-2-hydroxy-3-(8-(3-(5-methylpyridin-3-yl)phenylsulfonyl)-1-oxa-8-azaspiro[4.5]decan-3-ylamino)propoxy)-N-methylbenzenesulfonamide]	19
CNS(=O)(=O)c1cccc(OC[C@@H](O)CNC2COC3(CCN(S(=O)(=O)c4ccc(F)c(C)c4)CC3)C2)c1 (stereo partly drawn) [Compound 149, 3-((2S)-3-(8-(4-fluoro-3-methylphenylsulfonyl)-1-oxa-8-azaspiro[4.5]decan-3-ylamino)-2-hydroxypropoxy)-N-methylbenzenesulfonamide]	20.6

Further lines, results first:

IC50 [nM]	SMILES
35.8	CCCN1CCOc2ncc(S(=O)(=O)N3CCC4(CC3)C[C@@H](NC[C@H](O)COc3cccc(S(=O)(=O)NC)c3)CO4)cc21 [Compound 470, 3-((S)-2-hydroxy-3-((R)-8-(1-propyl-2,3-dihydro-1H-pyrido[2,3-b][1,4]oxazin-7-ylsulfonyl)-1-oxa-8-azaspiro[4.5]decan-3-ylamino)propoxy)-N-methylbenzenesulfonamide]
14.2	CNS(=O)(=O)c1cccc(OC[C@@H](O)CNC2COC3(CCN(S(=O)(=O)c4cc(Cl)cc(Cl)c4)CC3)C2)c1 (stereo partly drawn) [Compound 138, 3-((2S)-3-(8-(3,5-dichlorophenylsulfonyl)-1-oxa-8-azaspiro[4.5]decan-3-ylamino)-2-hydroxypropoxy)-N-methylbenzenesulfonamide]
11.1	CNS(=O)(=O)c1cccc(OC[C@@H](O)CNC2COC3(CCN(S(=O)(=O)c4cccc(-c5ccc(/C(N)=N/O)cc5)c4)CC3)C2)c1 (stereo partly drawn) [Compound 379, (Z)-N′-hydroxy-3′-(3-((S)-2-hydroxy-3-(3-(N-methylsulfamoyl)phenoxy)propylamino)-1-oxa-8-azaspiro[4.5]decan-8-ylsulfonyl)biphenyl-4-carboximidamide]
93.4	CNS(=O)(=O)c1cccc(OC[C@@H](O)CNC2COC3(CCN(S(=O)(=O)c4ccc(N5CCNCC5)nc4)CC3)C2)c1 (stereo partly drawn) [Compound 430, 3-((2S)-2-hydroxy-3-(8-(6-(piperazin-1-yl)pyridin-3-ylsulfonyl)-1-oxa-8-azaspiro[4.5]decan-3-ylamino)propoxy)-N-methylbenzenesulfonamide]
10.2	CNS(=O)(=O)c1cccc(OC[C@@H](O)CN[C@H]2COC3(CCN(S(=O)(=O)c4cnc5c(C)cccc5c4O)CC3)C2)c1 [Compound 528, 3-((S)-2-hydroxy-3-((R)-8-(4-hydroxy-8-methylquinolin-3-ylsulfonyl)-1-oxa-8-azaspiro[4.5]decan-3-ylamino)propoxy)-N-methylbenzenesulfonamide]
34.4	CNS(=O)(=O)c1cccc(OC[C@@H](O)CNC2COC3(CCN(S(=O)(=O)c4cc(C)ccc4C)CC3)C2)c1 (stereo partly drawn) [Compound 154, 3-((2S)-3-(8-(2,5-dimethylphenylsulfonyl)-1-oxa-8-azaspiro[4.5]decan-3-ylamino)-2-hydroxypropoxy)-N-methylbenzenesulfonamide]
49.3	CNS(=O)(=O)c1cccc(OC[C@@H](O)CNC2COC3(CCN(S(=O)(=O)c4ccc(S(C)(=O)=O)cc4)CC3)C2)c1 (stereo partly drawn) [Compound 37, 3-((2S)-2-hydroxy-3-(8-(4-(methylsulfonyl)phenylsulfonyl)-1-oxa-8-azaspiro[4.5]decan-3-ylamino)propoxy)-N-methylbenzenesulfonamide]
24.3	CNS(=O)(=O)c1cccc(OC[C@@H](O)CNC2COC3(CCN(S(=O)(=O)c4ccc(Cl)s4)CC3)C2)c1 (stereo partly drawn) [Compound 181, 3-((2S)-3-(8-(5-chlorothiophen-2-ylsulfonyl)-1-oxa-8-azaspiro[4.5]decan-3-ylamino)-2-hydroxypropoxy)-N-methylbenzenesulfonamide]
